From patent EP0367124A1, “Penicillanic acid derivatives” (F. HOFFMANN-LA ROCHE AG, priority 1988, dated 1990)
Where a name gives a salt, the structure may show the parent alone.

Columns and labels:
Test in all cases: In vitro MIC, Agar Well Diffusion Method
Type in all cases: cell-based
[1] = system: Staphylococcus aureus 3037B; details: Culture Staphylococcus aureus 3037B
[2] = system: Staphylococcus aureus 1059B; details: Culture Staphylococcus aureus 1059B
Escherichia coli 3082B = details: Culture Escherichia coli 3082B
Source text: (§1) The in vitro activity of compounds of the present invention as measured by the Minimum Inhibitory Concentration (MIC) in micrograms per milliliter (mcg/ml), utilizing the Agar Well Diffusion Method, against a variety of Gram-negative microorganisms is illustrated in the following Table, in which the compounds evaluated were as follows: • Compound A: [2S-[2α,3α,5α,6β(R*)]]-6-[[[[(4-Ethyl-2,3-dioxo-1-piperazinyl)carbonyl]amino]phenylacetyl]amino]-3-methyl-3-[[(1-methyl-1H-tetrazole-5-yl)thio]methyl]-7-oxo-4-thia-1-azabicyclo[3.2.0]-heptane-2-carboxylic acid monosodium salt sesquihydrate • Compound B: [2S-(2α,3α,5α,6β)]-3-Methyl-3-[[(1-methyl-1H-tetrazol-5-yl)-thio]methyl-7-oxo-6-[(phenylacetyl)amino]-4-thia-1-azabicyclo[3.2.0] heptane-2-carboxylic acid monosodium salt • Compound C: [2S-[2α,3α,5α,6β(Z)]]-6-[[(2-Amino-4-thiazolyl)-(methoxyimino)-acetyl]amino]-3-methyl -3-[[(1-methyl-1H-tetrazol-5-yl)thio]methyl]-7-oxo-4-thia-1-azabicyclo[3.2.0]heptane-2-carboxylic acid monosodium salt • Compound D: [2S-(2α,3α,5α,6β)]-3-(Azidomethyl)-3-methyl-7-oxo-6-[(phenylacetyl)amino]-4-thia-1-azabicyclo-[3.2.0]heptane-2-carboxylic acid monosodium salt • Compound E: [2S-(2α,3α,5α,6β)]-1-[[2-carboxy-3-methyl-7-oxo-6-[(phenylacetyl)amino]-4-thia-1-azabicyclo-[3.2.0]hept-3-yl]methylpyridinium hydroxide inner salt • Compound F: [2S-(2α,3α,5α,6β)]-3-[[(2,5-Dihydro-6-hydroxy-2-methyl-5-oxo-1,2,4-triazine-3-yl)thio] -methyl]-3-methyl-7-oxo-6-[(phenylacetyl)amino]-4-thia-1-azabicyclo[3.2.0]heptane-2-carboxylic acid disodium salt • Compound G: [2S-(2α,3α,5α,6β)]-3-[(Acetylthio)-methyl]-3-methyl-7-oxo-6-[(phenylacetyl)amino]-4-thia-1-azabicyclo[3.2.0]heptane-2-carboxylic acid monosodium salt • Compound H: [2S-(2α,3α,5α,6β)]-3-[[[3,4-bis(Acetyloxy)benzoyl]oxy]methyl]-3-methyl-7-oxo-6-[(phenylacetyl)amino]-4-thia-1-azabicyclo[3.2.0]heptane-2-carboxylic acid monosodium salt

[3] = system: Staphylococcus aureus 82 ATCC 6538P; details: Culture Staphylococcus aureus 82 ATCC 6538P; for MIC: ATCC6538P
Source text: as §1

[4] = system: Pseudomonas maltophilia 28978 ATCC 17445; details: Stenotrophomonas maltophilia, ATCC17445, Culture Pseudomonas maltophilia 28978 ATCC 17445
Source text: as §1

Escherichia coli 2721B = details: Culture Escherichia coli 2721B
Source text: as §1

[5] = system: Streptococcus faecium ATCC 8043; details: for MIC: Enterococcus faecium, ATCC8043, Culture Streptococcus faecium ATCC 8043
Source text: as §1

[6] = system: Micrococcus luteus PCI ATCC 9341; details: for MIC: ATCC9341, Culture Micrococcus luteus PCI ATCC 9341
Source text: as §1

Escherichia coli 2722B = details: Culture Escherichia coli 2722B
Source text: as §1

Proteus vulgaris 100 = details: Culture Proteus vulgaris 100
Source text: as §1

[7] = system: Bacillus subtilus 558 NRRL 558; details: for MIC: NRRL558, Culture Bacillus subtilus 558 NRRL 558
Source text: as §1

Escherichia coli 3081B = details: Culture Escherichia coli 3081B
Source text: as §1

[8] = system: Staphylococcus aureus 3647B; details: Culture Staphylococcus aureus 3647B
Source text: as §1

[9] = system: Proteus vulgaris 101N ATCC 6380; details: for MIC: ATCC6380, Culture Proteus vulgaris 101N ATCC 6380
Source text: as §1

[10] = system: Pseudomonas aeruginosa 56 ATCC 8079; details: for MIC: ATCC8079, Culture Pseudomonas aeruginosa 56 ATCC 8079
Source text: as §1

[11] = system: Pseudomonas aeruginosa 56M; details: Culture Pseudomonas aeruginosa 56M
Source text: as §1

[12] = system: Bacillus megaterium 164 ATCC 8011; details: for MIC: Priestia megaterium, ATCC8011, Culture Bacillus megaterium 164 ATCC 8011
Source text: as §1

Escherichia coli 1269B = details: Culture Escherichia coli 1269B
Source text: as §1

SMILES	MIC [1] [µg/mL]	MIC [2] [µg/mL]	MIC (Escherichia coli 3082B) [µg/mL]	MIC [3] [µg/mL]	MIC [4] [µg/mL]	MIC (Escherichia coli 2721B) [µg/mL]	MIC [5] [µg/mL]	MIC [6] [µg/mL]	MIC (Escherichia coli 2722B) [µg/mL]	MIC (Proteus vulgaris 100) [µg/mL]	MIC [7] [µg/mL]	MIC (Escherichia coli 3081B) [µg/mL]	MIC [8] [µg/mL]	MIC [9] [µg/mL]	MIC [10] [µg/mL]	MIC [11] [µg/mL]	MIC [12] [µg/mL]	MIC (Escherichia coli 1269B) [µg/mL]	further results
CCN1CCN(C(=O)NC(C(=O)NC2C(=O)N3C2SC(C)(CSc2nnnn2C)C3C(=O)O)c2ccccc2)C(=O)C1=O (stereo not drawn) [Compound A, [2S-[2α,3α,5α,6β(R*)]]-6-[[[[(4-Ethyl-2,3-dioxo-1-piperazinyl)carbonyl]amino]phenylacetyl]amino]-3-methyl-3-[[(1-methyl-1H-tetrazole-5-yl)thio]methyl]-7-oxo-4-thia-1-azabicyclo[3.2.0]-heptane-2-carboxylic acid monosodium salt sesquihydrate]	500	7.8	0.24	0.98	250	3.9	31.3	0.49	0.12	7.8	0.98	15.6	500	0.98	15.6	0.49	0.12	62.5	
Cn1nnnc1SCC1(C)SC2C(NC(=O)Cc3ccccc3)C(=O)N2C1C(=O)O (stereo not drawn) [Compound B, [2S-(2α,3α,5α,6β)]-3-Methyl-3-[[(1-methyl-1H-tetrazol-5-yl)-thio]methyl-7-oxo-6-[(phenylacetyl)amino]-4-thia-1-azabicyclo[3.2.0]heptane-2-carboxylic acid monosodium salt]	125	3.9	31.3	0.03	> 125	62.5	7.8	0.03	31.3	> 125	0.03	> 125	125	15.6	62.5	0.98	0.015	> 125	
CON=C(C(=O)NC1C(=O)N2C1SC(C)(CSc1nnnn1C)C2C(=O)O)c1csc(N)n1 (stereo not drawn) [Compound C, [2S-[2α,3α,5α,6β(Z)]]-6-[[(2-Amino-4-thiazolyl)-(methoxyimino)-acetyl]amino]-3-methyl-3-[[(1-methyl-1H-tetrazol-5-yl)thio]methyl]-7-oxo-4-thia-1-azabicyclo[3.2.0]heptane-2-carboxylic acid monosodium salt]	250	3.9	1.95	0.49	> 500	31.3	125	0.24	1.95	250	0.49	> 125	250	31.3	62.5	0.98	0.12	> 500	
CC1(CN=[N+]=[N-])SC2C(NC(=O)Cc3ccccc3)C(=O)N2C1C(=O)O (stereo not drawn) [Compound D, [2S-(2α,3α,5α,6β)]-3-(Azidomethyl)-3-methyl-7-oxo-6-[(phenylacetyl)amino]-4-thia-1-azabicyclo-[3.2.0]heptane-2-carboxylic acid monosodium salt]	125	7.8	7.8	0.03	> 125	62.5	7.8	0.03	15.6	> 125	0.06	125	125	15.6	> 125	3.9	0.12	> 125	
CC1(C[n+]2ccccc2)SC2C(NC(=O)Cc3ccccc3)C(=O)N2C1C(=O)[O-] (stereo not drawn) [Compound E, [2S-(2α,3α,5α,6β)]-1-[[2-carboxy-3-methyl-7-oxo-6-[(phenylacetyl)amino]-4-thia-1-azabicyclo-[3.2.0]hept-3-yl]methylpyridinium hydroxideinner salt]	62.5	15.6	31.3	0.49		31.3	125	1.95	31.3	> 500	0.24	125	500	125	125	3.9	0.49	500	
Cn1nc([O-])c(=O)nc1SC[C@@]1(C)S[C@@H]2[C@H](NC(=O)Cc3ccccc3)C(=O)N2[C@H]1C(=O)[O-].[Na+].[Na+] [Compound F, [2S-(2α,3α,5α,6β)]-3-[[(2,5-Dihydro-6-hydroxy-2-methyl-5-oxo-1,2,4-triazine-3-yl)thio] -methyl]-3-methyl-7-oxo-6-[(phenylacetyl)amino]-4-thia-1-azabicyclo[3.2.0]heptane-2-carboxylic acid disodium salt]																			In Vitro MIC [1]: 500 µg/mL; In Vitro MIC [2]: 0.24 µg/mL; In Vitro MIC (Escherichia coli 3082B): 0.98 µg/mL; In Vitro MIC [3]: 0.24 µg/mL; In Vitro MIC (Escherichia coli 2721B): 31.3 µg/mL; In Vitro MIC ([5]; Culture Streptococcus faecium ATCC 8043): 62.5 µg/mL; In Vitro MIC ([6]; Culture Micrococcus luteus PCI ATCC 9341): 0.24 µg/mL; In Vitro MIC (Escherichia coli 2722B): 3.9 µg/mL; In Vitro MIC (Proteus vulgaris 100): 250 µg/mL; In Vitro MIC ([7]; Culture Bacillus subtilus 558 NRRL 558): 0.12 µg/mL; In Vitro MIC (Escherichia coli 3081B): 125 µg/mL; In Vitro MIC [8]: 500 µg/mL; In Vitro MIC ([9]; Culture Proteus vulgaris 101N ATCC 6380): 7.8 µg/mL; In Vitro MIC ([10]; Culture Pseudomonas aeruginosa 56 ATCC 8079): 31.5 µg/mL; In Vitro MIC [11]: 0.49 µg/mL; In Vitro MIC ([12]; Culture Bacillus megaterium 164 ATCC 8011): 0.12 µg/mL; In Vitro MIC (Escherichia coli 1269B): 500 µg/mL
CC(=O)SCC1(C)SC2C(NC(=O)Cc3ccccc3)C(=O)N2C1C(=O)O (stereo not drawn) [Compound G, [2S-(2α,3α,5α,6β)]-3-[(Acetylthio)methyl]-3-methyl-7-oxo-6-[(phenylacetyl)amino]-4-thia-1-azabicyclo[3.2.0]heptane-2-carboxylic acid monosodium salt]	250	0.98	1.95	0.03	> 500	62.5	0.98	0.06	7.8	> 500	0.03	500	250	31.3	125	0.98			
CC(=O)Oc1ccc(C(=O)OCC2(C)SC3C(NC(=O)Cc4ccccc4)C(=O)N3C2C(=O)O)cc1OC(C)=O (stereo not drawn) [Compound H, [2S-(2α,3α,5α,6β)]-3-[[[3,4-bis(Acetyloxy)benzoyl]oxy]methyl]-3-methyl-7-oxo-6-[(phenylacetyl)amino]-4-thia-1-azabicyclo[3.2.0]heptane-2-carboxylic acid monosodium salt]	125	7.8	15.6	0.12	31.5	500	7.8	0.12	62.5	> 500	0.12	> 500	500	62.5	31.5	1.95			
